Test results from the supplement of paper PMC11003180.

How the values were obtained:
Test in all cases: drug sensitivity score (DSS) from 5-dose viability curve (DSS (area-based score, 0 = no response)); higher = more sensitive (stronger viability inhibition); extreme values may be limits of the assay
[1] = test system: MDCK wild-type + doxycycline; details: doxycycline: 10 ng/mL; 72 h
In short: (§1)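 After 72 h at 37 °C on 384-well plates pre-spotted with 528 oncology drugs at five doses (1-10,000 nM), parental and doxycycline-inducible MDCK cells were assessed; both lines had been given 10 ng/mL doxycycline in the medium before seeding at 2000 cells/well. Viability was taken from CellTiter-Glo luminescence scaled per plate to vehicle and positive controls, and drug sensitivity scores were derived from dose-response fits in the Breeze pipeline.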

[2] = test system: MDCK p60AmotL2-inducible + doxycycline (p60AmotL2 expressing); details: doxycycline: 10 ng/mL; 72 h
In short: as §1

[3] = test system: MDCK wild-type - doxycycline; details: doxycycline: none; 72 h
In short: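 Drug sensitivity scores came from Breeze pipeline dose-response fits of CellTiter-Glo luminescence, scaled per plate between vehicle and positive controls. The assay used parental MDCK cells without doxycycline at 2000 cells/well, exposed for 72 h to 528 oncology drugs at five doses (1-10,000 nM).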

SMILES | drug sensitivity score [1] | drug sensitivity score [2] | drug sensitivity score [3]
Cn1cc(-c2cnn3c(N)c(Br)c([C@@H]4CCCNC4)nc23)cn1 [MK-8776] | 0 | 0 | 0
COc1cccc2c1C(=O)c1c(O)c3c(c(O)c1C2=O)C[C@@](O)(/C(CO)=N/NC(=O)CCCCCN1C(=O)C=CC1=O)C[C@@H]3O[C@H]1C[C@H](N)[C@H](O)[C@H](C)O1 [Aldoxorubicin] | 8.6 | 11.2 | 4.5
CO[C@H](C(=O)[C@@H](O)[C@@H](C)O)[C@@H]1Cc2cc3cc(O[C@H]4C[C@@H](O[C@@H]5C[C@@H](O)[C@H](O)[C@@H](C)O5)[C@H](O)[C@@H](C)O4)c(C)c(O)c3c(O)c2C(=O)[C@H]1O[C@H]1C[C@@H](O[C@@H]2C[C@@H](O)[C@@H](O[C@@H]3C[C@](C)(O)[C@H](O)[C@@H](C)O3)[C@@H](C)O2)[C@H](O)[C@@H](C)O1 [Plicamycin] | 11.3 | 14.1 | 10.4
NS(=O)(=O)OC[C@@H]1C[C@@H](n2ccc3c(N[C@H]4CCc5ccccc54)ncnc32)C[C@@H]1O [Pevonedistat] | 9.7 | 11.7 | 9
CN1CCN(C2CCN(C(=O)Nc3cc(Oc4ccc(NC(=O)C5(C(=O)Nc6ccc(F)cc6)CC5)c(F)c4)ccn3)CC2)CC1 [Golvatinib] | 0 | 1 | 0
COc1cc(Br)c(Nc2nc(-c3c(C)nc4ncccn34)cs2)c(Br)c1 [PTC-209] | 11.4 | 13.8 | 9.6
CC(C)(C)c1cc(NC(=O)Nc2ccc(-c3cn4c(n3)sc3cc(OCCN5CCOCC5)ccc34)cc2)no1 [Quizartinib] | 3 | 3.9 | 3.3
CN1CCN(C(=O)c2ccc3cc(CCNc4ncnc5ccc(C#N)cc45)ccc3c2)CC1 [Senexin B] | 0.1 | 0.6 | 0
CC1(C)CCC(CN2CCN(c3ccc(C(=O)NS(=O)(=O)c4ccc(NCC5CCOCC5)c([N+](=O)[O-])c4)c(Oc4cnc5[nH]ccc5c4)c3)CC2)=C(c2ccc(Cl)cc2)C1 [Venetoclax] | 0 | 0 | 0
COc1ncc(-c2ccc3nccc(-c4ccnnc4)c3c2)cc1NS(=O)(=O)c1ccc(F)cc1F [Omipalisib] | 14.2 | 20.2 | 14.5
O=C(NC[C@H](O)CN1CCc2ccccc2C1)c1cc(NC2COC2)ncn1 | 0 | 0.2 | 0
C[C@]12CC[C@H](O)CC1=CC[C@@H]1[C@@H]2CC[C@]2(C)C(c3cccnc3)=CC[C@@H]12 [Abiraterone] | 0 | 0 | 0
CN(C)C(=N)NC(=N)N [Metformin] | 0 | 0 | 0
NCCNc1ccc(NCCN)c2c1C(=O)c1ccncc1C2=O [Pixantrone] | 0 | 0 | 0
C[C@H](Nc1ncnc2[nH]cnc12)c1cc2ccc(F)cc2nc1-c1ccccn1 [AMG319] | 0 | 0 | 0
Cc1cn(-c2cc(NC(=O)c3ccc(C)c(Nc4nccc(-c5cccnc5)n4)c3)cc(C(F)(F)F)c2)cn1 [Nilotinib] | 0 | 0 | 0
O=C(NCc1ccncc1)C12CC3CC(C1)CC(c1ccc(Cl)cc1)(C3)C2 | 4.3 | 6.4 | 2.4

SMILES | drug sensitivity score [1] | drug sensitivity score [2] | drug sensitivity score [3]
COc1ccc(COc2cc3oc(=O)c4cc(C(C)O)ccc4c3cc2OC)cc1 (configuration not stated) [Palomid-529] | 0 | 0.1 | 0
O=C1NC(=O)[C@@H](c2cn3c4c(cccc24)CCC3)[C@@H]1c1c[nH]c2ccccc12 [Tivantinib] | 3.4 | 2.7 | 1.6
CO[C@H]1CC[C@H](N2C(=O)CNc3ncc(-c4ccc(C(C)(C)O)nc4)nc32)CC1 [CC-223] | 2.9 | 5.2 | 2.8
Cc1cc2c(C(=O)NC[C@H](C)c3ccccc3)c(O)c(O)cc2c(O)c1-c1c(C)cc2c(C(=O)NC[C@H](C)c3ccccc3)c(O)c(O)cc2c1O [Sabutoclax] | 19.3 | 23 | 13.9
CN1CCN(c2nc(C3=C(c4c[nH]c5ccccc45)C(=O)NC3=O)c3ccccc3n2)CC1 [Sotrastaurin] | 0 | 0.3 | 0
CC(C)(O)CNc1nc(Nc2ccnc(C(F)(F)F)c2)nc(-c2cccc(C(F)(F)F)n2)n1 [Enasidenib] | 0 | 0 | 0
Clc1ccccc1C(c1ccccc1)(c1ccccc1)n1cccn1 [TRAM-34] | 0 | 0 | 0
COc1cc(N2CCN(C)CC2)ccc1Nc1nccc(-c2cn(C)c3cnccc23)n1 [AZ191] | 2.5 | 2.2 | 0
CCc1cc2c(cc1N1CCC(N3CCOCC3)CC1)C(C)(C)c1[nH]c3cc(C#N)ccc3c1C2=O [Alectinib] | 0 | 0 | 0
C=CC(=O)Nc1cc2c(Nc3ccc(F)c(Cl)c3)ncnc2cc1OCCCN1CCOCC1 [Canertinib] | 9.6 | 15.2 | 7.9
CCN(CC)CCNC(=O)c1c(C)[nH]c(/C=C2\C(=O)Nc3ccc(-c4csc(-c5ccccc5)n4)cc32)c1C [Amcasertib] | 0 | 0 | 0
Cc1ccc(C(=O)Nc2cccc(C(F)(F)F)c2)cc1Nc1nc(-c2cccnc2)nc2c1cnn2C [NVP-BHG712] | 0 | 0 | 4.8
Nc1nc(Cl)nc2c1ncn2[C@@H]1O[C@H](CO)[C@@H](O)[C@@H]1F [Clofarabine] | 12.9 | 13.8 | 12.1
CCOc1ccccc1-n1c(C(C)N2CCN(C(=O)COc3ccc(Cl)cc3)CC2)nc2ccccc2c1=O (configuration not stated) [Erastin] | 0 | 0 | 0
NC(=O)Nc1cc(-c2cccc(F)c2)sc1C(=O)N[C@H]1CCCNC1 [AZD7762] | 0.2 | 0.3 | 0
CNS(=O)(=O)Nc1nccc(Cc2c(C)c3ccc(Oc4ncccn4)cc3oc2=O)c1F | 0.5 | 2.3 | 0
Nc1ncnc2c1nc(Cl)n2[C@@H]1O[C@H](CO)[C@@H](O)[C@H]1O [8-chloro-adenosine] | 8.3 | 13.6 | 6.7
